# Experimental data taken from ChEMBL document CHEMBL1201862, “PubChem BioAssay data set” (2004).
# Calls of active or inactive are those of the source.
# Tests used:
# Escherichia coli = assay: microbe, parasite or virus in culture
# [1] = target: T1, Tyrosine-protein phosphatase non-receptor type 22 (Homo sapiens, UniProt Q9Y2R2); assay: SAR LYP1 Fluorescent Assay using OMFP substrate for In Vitro dose response studies - Set 3. [Related pubchem assays (depositor defined):AID1779, AID1784, AID2140, AID2686]; assay type: functional
# T1 sequence (Q9Y2R2 whole entry): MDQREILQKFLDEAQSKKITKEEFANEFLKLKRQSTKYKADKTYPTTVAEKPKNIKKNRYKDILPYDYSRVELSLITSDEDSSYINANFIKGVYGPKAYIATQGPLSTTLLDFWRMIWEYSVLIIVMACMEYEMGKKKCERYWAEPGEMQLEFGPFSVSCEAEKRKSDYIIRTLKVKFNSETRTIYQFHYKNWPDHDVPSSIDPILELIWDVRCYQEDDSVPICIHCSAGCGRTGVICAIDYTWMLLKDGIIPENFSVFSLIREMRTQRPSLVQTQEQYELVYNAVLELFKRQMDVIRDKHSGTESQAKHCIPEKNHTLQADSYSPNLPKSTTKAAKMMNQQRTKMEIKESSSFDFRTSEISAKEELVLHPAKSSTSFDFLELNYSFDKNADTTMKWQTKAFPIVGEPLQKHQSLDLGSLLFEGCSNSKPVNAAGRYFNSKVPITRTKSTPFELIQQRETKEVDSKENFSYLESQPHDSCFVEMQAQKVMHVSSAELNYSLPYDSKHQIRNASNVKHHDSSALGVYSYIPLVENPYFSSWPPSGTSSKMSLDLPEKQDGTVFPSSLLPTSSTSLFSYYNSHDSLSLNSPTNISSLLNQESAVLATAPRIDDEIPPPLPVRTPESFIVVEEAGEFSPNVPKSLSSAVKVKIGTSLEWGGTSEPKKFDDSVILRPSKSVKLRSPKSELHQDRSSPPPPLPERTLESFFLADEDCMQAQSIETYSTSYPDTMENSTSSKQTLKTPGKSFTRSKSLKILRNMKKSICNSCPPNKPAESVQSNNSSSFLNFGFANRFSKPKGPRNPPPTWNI
# [2] = target: T2, Tyrosine-protein phosphatase non-receptor type 7 (Homo sapiens, UniProt P35236); assay: HePTP (PTPN7) phosphatase inhibitor potency, SAR follow-up, biochemical, set 2 (AID 449736); assay type: functional
# T2 sequence (P35236 whole entry): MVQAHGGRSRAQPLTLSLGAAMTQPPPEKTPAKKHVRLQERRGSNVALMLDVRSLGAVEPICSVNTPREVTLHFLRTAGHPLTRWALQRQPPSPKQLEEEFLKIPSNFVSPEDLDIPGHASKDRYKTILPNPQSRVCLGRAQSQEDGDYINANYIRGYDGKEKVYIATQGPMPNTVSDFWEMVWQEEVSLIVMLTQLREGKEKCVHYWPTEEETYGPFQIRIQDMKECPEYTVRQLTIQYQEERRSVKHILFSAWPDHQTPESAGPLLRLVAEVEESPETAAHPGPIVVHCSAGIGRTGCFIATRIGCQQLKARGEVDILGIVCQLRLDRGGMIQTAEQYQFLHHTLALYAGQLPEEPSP
# [3] = target: T1, Tyrosine-protein phosphatase non-receptor type 22; assay: LYP (PTPN22) phosphatase inhibitor potency, SAR follow-up, biochemical, pCAP fluorogenic substrate, fluorescence, set 3 (AID 449727); assay type: functional
# [4] = target: T3, Tyrosine-protein phosphatase non-receptor type 12 (Homo sapiens, UniProt Q05209); assay: SAR Selectivity Analysis of small molecule inhibitors of PEST using pCAP in a fluorescence assay. [Related pubchem assays (depositor defined):AID1779, AID1784, AID2135]; assay type: functional
# T3 sequence (Q05209 whole entry): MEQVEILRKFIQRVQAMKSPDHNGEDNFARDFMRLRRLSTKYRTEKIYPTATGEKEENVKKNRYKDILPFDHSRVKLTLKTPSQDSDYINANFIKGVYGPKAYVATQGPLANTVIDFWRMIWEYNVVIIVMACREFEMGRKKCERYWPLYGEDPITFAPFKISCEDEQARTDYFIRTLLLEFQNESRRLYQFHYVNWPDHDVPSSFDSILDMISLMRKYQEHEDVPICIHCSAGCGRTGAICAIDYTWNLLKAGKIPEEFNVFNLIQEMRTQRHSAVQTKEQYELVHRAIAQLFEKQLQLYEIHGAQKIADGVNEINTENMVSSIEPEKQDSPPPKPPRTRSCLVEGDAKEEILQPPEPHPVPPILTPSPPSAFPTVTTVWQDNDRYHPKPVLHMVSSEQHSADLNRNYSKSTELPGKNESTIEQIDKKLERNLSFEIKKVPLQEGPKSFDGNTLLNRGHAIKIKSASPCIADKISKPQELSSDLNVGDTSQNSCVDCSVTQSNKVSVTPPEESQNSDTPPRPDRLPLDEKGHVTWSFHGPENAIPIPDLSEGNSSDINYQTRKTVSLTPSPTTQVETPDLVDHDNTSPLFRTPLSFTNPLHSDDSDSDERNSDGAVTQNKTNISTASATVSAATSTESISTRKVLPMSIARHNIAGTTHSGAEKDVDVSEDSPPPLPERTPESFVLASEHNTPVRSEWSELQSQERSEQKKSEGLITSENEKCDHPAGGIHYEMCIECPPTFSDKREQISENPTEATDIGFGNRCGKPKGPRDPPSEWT
# [5] = target: T1, Tyrosine-protein phosphatase non-receptor type 22; assay: SAR LYP1 Fluorescent Assay using pCAP substrate for In Vitro dose response studies - Set 2. [Related pubchem assays (depositor defined):AID1779, AID1784, AID2135, AID449727]; assay type: functional
# [6] = target: T1, Tyrosine-protein phosphatase non-receptor type 22; assay: SAR LYP1 Fluorescent Assay using OMFP substrate for In Vitro dose response studies - Set 2. [Related pubchem assays (depositor defined):AID1779, AID1784, AID2140, AID449726, AID488869]; assay type: functional
# CAAX prenyl protease 2 [7] = target: T4, CAAX prenyl protease 2 (Homo sapiens, UniProt Q9Y256); assay: human Rce1 protease inhibitors, dose response, biochemical, yeast membranes, quenched-peptide fluorescence, cherry-pick (AID 588849)
# T4 sequence (Q9Y256 whole entry): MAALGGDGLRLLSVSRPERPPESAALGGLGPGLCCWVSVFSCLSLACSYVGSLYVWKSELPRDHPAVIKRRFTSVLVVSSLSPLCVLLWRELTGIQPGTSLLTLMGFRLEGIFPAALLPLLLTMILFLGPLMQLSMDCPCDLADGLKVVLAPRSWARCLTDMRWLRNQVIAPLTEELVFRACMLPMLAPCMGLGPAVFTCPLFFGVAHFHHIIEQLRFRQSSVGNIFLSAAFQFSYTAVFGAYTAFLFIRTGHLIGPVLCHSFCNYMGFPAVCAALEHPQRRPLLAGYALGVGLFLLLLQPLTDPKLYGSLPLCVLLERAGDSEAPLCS
# CAAX prenyl protease 2 [8] = target: T5, CAAX prenyl protease 2 (Saccharomyces cerevisiae S288c, UniProt Q03530); assay type: biochemical
# T5 sequence (Q03530 whole entry): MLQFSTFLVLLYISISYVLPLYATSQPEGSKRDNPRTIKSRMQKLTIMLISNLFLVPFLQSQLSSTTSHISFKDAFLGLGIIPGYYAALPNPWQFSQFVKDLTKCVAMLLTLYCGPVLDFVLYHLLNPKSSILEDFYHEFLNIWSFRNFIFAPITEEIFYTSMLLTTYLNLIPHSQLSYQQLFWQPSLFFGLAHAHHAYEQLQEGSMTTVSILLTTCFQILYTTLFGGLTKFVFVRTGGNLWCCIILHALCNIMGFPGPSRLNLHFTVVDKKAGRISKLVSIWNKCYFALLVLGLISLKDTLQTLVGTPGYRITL
# HeLa = assay: HeLa cell cytotoxicity, dose response, cytotoxicity control for MITF activator project, CellTiter-Glo luminescence, cherry-pick samples (AID 540259); assay type: functional, cell-based; details: Homo sapiens
# [9] = target: Delta-type opioid receptor (Homo sapiens, UniProt P41143); assay: Counterscreen for agonists of heterodimerization of the mu 1 (OPRM1) and delta 1 (OPRD1) opioid receptors: Luminescence-based cell-based high throughput dose response assay to identify agonists of OPRD1 homodimerization. [Related pubchem assays (depositor defined):AID504326, AID504355, AID504692, AID504904, AID504905]; assay type: functional
# Delta-type opioid receptor, sequence (P41143 whole entry): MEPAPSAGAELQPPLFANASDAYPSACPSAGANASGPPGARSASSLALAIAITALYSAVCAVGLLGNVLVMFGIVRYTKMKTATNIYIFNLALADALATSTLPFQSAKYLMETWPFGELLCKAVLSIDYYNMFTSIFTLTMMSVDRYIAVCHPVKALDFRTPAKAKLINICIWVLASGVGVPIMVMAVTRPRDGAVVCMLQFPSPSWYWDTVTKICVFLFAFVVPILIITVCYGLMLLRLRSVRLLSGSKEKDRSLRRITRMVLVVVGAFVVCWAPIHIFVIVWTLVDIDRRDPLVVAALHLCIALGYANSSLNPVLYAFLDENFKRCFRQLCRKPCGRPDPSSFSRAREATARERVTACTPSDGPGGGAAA
# [10] = target: 5-hydroxytryptamine receptor 5A (Homo sapiens, UniProt P47898); assay: Counterscreen for agonists of OPRM1-OPRD1 heterodimerization: luminescence-based cell-based high throughput dose response assay to identify agonists of 5-hydroxytryptamine (serotonin) 5A receptor (HTR5A). [Related pubchem assays (depositor defined):AID504326, AID504355, AID504692, AID504904, AID504905]; assay type: functional
# 5-hydroxytryptamine receptor 5A, sequence (P47898 whole entry): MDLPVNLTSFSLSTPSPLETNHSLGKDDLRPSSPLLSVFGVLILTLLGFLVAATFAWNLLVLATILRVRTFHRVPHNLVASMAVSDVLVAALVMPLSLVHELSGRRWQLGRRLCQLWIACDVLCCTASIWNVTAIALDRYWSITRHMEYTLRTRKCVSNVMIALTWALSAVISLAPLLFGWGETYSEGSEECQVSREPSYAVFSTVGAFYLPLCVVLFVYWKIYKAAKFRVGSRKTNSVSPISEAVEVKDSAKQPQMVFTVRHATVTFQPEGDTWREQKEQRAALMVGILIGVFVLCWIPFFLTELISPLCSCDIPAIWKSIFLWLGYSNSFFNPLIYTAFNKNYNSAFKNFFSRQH
# Mu-type opioid receptor = Mu-type opioid receptor (Homo sapiens, UniProt P35372); assay: Counterscreen for agonists of heterodimerization of the mu 1 (OPRM1) and delta 1 (OPRD1) opioid receptors: Luminescence-based cell-based high throughput dose response assay to identify agonists of OPRM1 homodimerization.; assay type: functional;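 also: U2OS cells expressing OPRM1 and beta-arrestin as split beta-galactosidase partners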
# Mu-type opioid receptor, sequence (P35372 whole entry): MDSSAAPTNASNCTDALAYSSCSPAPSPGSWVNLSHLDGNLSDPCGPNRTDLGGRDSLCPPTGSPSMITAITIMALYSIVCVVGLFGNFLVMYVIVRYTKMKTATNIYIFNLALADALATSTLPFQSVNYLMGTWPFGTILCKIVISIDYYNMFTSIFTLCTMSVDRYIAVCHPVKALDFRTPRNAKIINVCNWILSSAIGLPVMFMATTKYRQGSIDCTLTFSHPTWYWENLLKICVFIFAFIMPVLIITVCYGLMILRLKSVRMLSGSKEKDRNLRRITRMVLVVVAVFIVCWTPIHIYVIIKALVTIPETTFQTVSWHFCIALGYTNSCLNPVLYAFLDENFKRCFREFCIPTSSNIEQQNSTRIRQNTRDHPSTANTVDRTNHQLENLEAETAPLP
# [11] = M. tuberculosis H37Rv growth inhibitors, H37Rv strain (AID 1626); assay type: functional
# [12] = target: T6, Short transient receptor potential channel 4 (Mus musculus, UniProt Q9QUQ5); assay: mouse TRPC4 channel activators, dose response, cell-based, HEK293 TRPC4/mu-opioid, Fluo-4 calcium (AID 434937); assay type: functional
# T6 sequence (Q9QUQ5 whole entry): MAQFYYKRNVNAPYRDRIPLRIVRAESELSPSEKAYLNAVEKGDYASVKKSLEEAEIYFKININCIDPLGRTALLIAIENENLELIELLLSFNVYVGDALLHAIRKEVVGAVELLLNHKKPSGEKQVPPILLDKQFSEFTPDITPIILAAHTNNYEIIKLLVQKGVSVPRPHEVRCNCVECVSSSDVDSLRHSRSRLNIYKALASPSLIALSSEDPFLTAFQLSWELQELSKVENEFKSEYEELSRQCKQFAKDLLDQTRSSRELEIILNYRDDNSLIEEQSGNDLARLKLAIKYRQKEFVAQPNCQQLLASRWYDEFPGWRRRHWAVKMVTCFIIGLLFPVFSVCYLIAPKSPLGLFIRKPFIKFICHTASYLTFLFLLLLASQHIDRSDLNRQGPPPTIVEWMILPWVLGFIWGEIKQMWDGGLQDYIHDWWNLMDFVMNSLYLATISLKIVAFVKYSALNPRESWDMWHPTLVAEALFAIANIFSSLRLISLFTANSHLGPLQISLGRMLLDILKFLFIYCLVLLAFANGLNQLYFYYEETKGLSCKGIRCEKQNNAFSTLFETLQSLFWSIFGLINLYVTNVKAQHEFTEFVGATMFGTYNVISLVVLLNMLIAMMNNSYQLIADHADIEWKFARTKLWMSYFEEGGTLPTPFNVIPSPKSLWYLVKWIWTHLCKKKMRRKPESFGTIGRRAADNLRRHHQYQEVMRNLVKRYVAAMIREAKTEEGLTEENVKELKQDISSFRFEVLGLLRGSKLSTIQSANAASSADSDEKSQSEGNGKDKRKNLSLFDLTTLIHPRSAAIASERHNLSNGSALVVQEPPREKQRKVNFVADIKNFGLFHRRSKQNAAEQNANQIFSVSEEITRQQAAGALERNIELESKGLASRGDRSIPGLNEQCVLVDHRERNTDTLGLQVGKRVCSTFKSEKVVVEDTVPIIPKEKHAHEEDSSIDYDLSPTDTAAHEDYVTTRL
# [13] = target: Voltage-gated inwardly rectifying potassium channel KCNH2 (Homo sapiens, UniProt Q12809); details: Potency;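 also: confirmatory quantitative high-throughput screen measuring inhibition of hERG channel activity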
# Voltage-gated inwardly rectifying potassium channel KCNH2, sequence (Q12809 whole entry): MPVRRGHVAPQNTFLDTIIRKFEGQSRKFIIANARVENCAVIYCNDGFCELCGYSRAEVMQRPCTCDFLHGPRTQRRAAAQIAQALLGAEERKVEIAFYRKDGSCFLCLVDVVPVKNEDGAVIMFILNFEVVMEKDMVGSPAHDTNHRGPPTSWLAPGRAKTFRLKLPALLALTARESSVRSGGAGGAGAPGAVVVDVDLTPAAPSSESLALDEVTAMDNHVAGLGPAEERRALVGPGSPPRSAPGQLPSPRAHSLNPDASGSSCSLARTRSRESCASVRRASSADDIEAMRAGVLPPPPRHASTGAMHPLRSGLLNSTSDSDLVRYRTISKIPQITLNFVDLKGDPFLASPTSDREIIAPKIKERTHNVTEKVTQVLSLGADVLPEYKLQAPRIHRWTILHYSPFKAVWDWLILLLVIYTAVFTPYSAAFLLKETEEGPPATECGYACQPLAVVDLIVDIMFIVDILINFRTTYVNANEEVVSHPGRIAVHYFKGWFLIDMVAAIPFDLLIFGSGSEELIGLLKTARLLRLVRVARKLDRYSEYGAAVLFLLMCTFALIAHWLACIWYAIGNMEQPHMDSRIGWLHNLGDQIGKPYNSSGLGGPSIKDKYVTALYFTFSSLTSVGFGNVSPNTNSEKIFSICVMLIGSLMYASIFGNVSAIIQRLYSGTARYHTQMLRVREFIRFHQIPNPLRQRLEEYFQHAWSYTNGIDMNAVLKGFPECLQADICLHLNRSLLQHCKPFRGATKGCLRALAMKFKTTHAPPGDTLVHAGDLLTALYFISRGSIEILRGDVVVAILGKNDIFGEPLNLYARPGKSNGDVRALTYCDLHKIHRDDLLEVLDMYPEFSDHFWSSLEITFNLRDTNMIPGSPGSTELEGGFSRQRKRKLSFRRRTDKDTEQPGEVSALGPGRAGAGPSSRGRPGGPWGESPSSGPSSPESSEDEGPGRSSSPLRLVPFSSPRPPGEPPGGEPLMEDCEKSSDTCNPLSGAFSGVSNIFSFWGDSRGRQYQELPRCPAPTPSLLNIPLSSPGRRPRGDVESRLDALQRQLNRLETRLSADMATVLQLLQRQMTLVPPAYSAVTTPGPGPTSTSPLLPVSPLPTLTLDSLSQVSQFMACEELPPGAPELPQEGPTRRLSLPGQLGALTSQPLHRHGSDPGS
smiles,measurement,setting,value
Cc1cccnc1NC(=O)c1cccc(S(=O)(=O)N2CCCc3ccccc32)c1,AC50,Escherichia coli,23.6 µM (active)
COc1cc(/C=C2/SC(=S)N(c3cccc(C(=O)O)c3)C2=O)cc(Cl)c1OCc1cccc(C(=O)O)c1,IC50,[1],62.8 µM (active)
same,IC50,[2],3.81 µM (active)
same,IC50,[3],20.4 µM (active)
same,IC50,[4],2.81 µM (active)
same,IC50,[5],12.2 µM (active)
same,IC50,[6],14.6 µM (active)
O=C(CC1(O)C(=O)N(C/C=C/c2ccccc2)c2ccccc21)c1ccccn1 (stereo not drawn),AC50,CAAX prenyl protease 2 [7],59.1 µM (active)
same,AC50,CAAX prenyl protease 2 [8],26.3 µM (active)
C#CC(C)(CC)NC(=O)c1cc2cccc(CC=C)c2oc1=O (stereo not drawn),AC50,Escherichia coli,23.8 µM (active)
COc1ccc2cc(CCNC(=O)c3cccs3)c(O)nc2c1,AC50,HeLa,51 µM (active)
CCN1CCN(S(=O)(=O)c2ccc(Cl)c(C(=O)N(CCc3ccccc3)Cc3ccccc3)c2)CC1,EC50,[9],> 92.5 µM (inactive)
same,EC50,[10],> 92.5 µM (inactive)
same,EC50,Mu-type opioid receptor,> 92.5 µM (inactive)
CC(=O)OC1CCC2(C)C(COc3ccc4ccc(=O)oc4c3)C(C)(O)CCC2C1(C)C (stereo not drawn),AC50,CAAX prenyl protease 2 [7],87.2 µM (active)
same,AC50,CAAX prenyl protease 2 [8],18.1 µM (active)
Fc1cccc(-c2cc3nc(-c4ccccc4)cc(N4CCC5(CC4)OCCO5)n3n2)c1,AC50,CAAX prenyl protease 2 [7],1.35 µM (active)
same,IC50,[11],> 100 µM (active)
Cc1nnc2sc(-c3ccc(N(C)C)cc3)nn2c1=O,AC50,HeLa,55.2 µM (active)
COc1ccc(C(CNC(=O)c2ccc3c(c2)CCC3)N(C)C)cc1 (stereo not drawn),EC50,[9],7.36 µM (active)
same,EC50,[10],> 92.5 µM (inactive)
same,EC50,Mu-type opioid receptor,0.503 µM (active)
same,EC50,[12],0.0053 µM (active)
Nc1ccc(Cc2ccc(N)c(Cl)c2)cc1Cl,AC50,[13],79.4 µM (inconclusive)
O=C(CSc1nccn1Cc1ccccc1)NC1CCCC1,AC50,Escherichia coli,25.5 µM (active)
c1ccc(-n2ncc3c(NCc4cccs4)ncnc32)cc1,AC50,HeLa,55.5 µM (active)
CCOc1ccc(/C=N/NC(=O)c2ccc(-c3csc(Nc4ccc(C)cc4)n3)cc2)cc1OCC,IC50,[1],> 100 µM (inactive)
same,IC50,[2],60.8 µM (active)
same,IC50,[3],> 100 µM (inactive)
same,IC50,[4],> 100 µM (inactive)
same,IC50,[5],> 100 µM (inactive)
same,IC50,[6],95.3 µM (active)
COc1cc(/C=C2/SC(=S)N(c3cccc(C(=O)O)c3)C2=O)ccc1OCc1ccc(Cl)cc1,IC50,[1],3.06 µM (active)
same,IC50,[2],0.394 µM (active)
same,IC50,[3],3.49 µM (active)
same,IC50,[4],0.953 µM (active)
same,IC50,[5],3.68 µM (active)
same,IC50,[6],4.04 µM (active)
